{"source": "patent US4529602A", "about": "“Method for treatment or prophylaxis of gastro-intestinal disease” (priority 1981, dated 1985)", "key": {"pepsin secretion": {"test_system": "pepsin secretion", "assay": "Preventive effect on pepsin secretion in pylorus-ligated rats", "type": "in vivo, Male SD-strain rats", "conditions": "100 mg/kg oral, 5 h after administration", "protocol": "(§1) Preventive effect on acid and pepsin secretions\n(§2) Male SD-strain rats (6 to 7 weeks old) were starved for 48 hours, and then the pylori were ligated. Immediately after ligation, a solution or suspension of a test compound in distilled water was administered orally into the stomachs in an amount of 0.2 ml per 100 g of body weight (Dose: 100 mg/kg). Five hours after said administration of the test compound, the rats were sacrificed and the stomachs were removed. The gastric contents were centrifuged at 2,500 rpm for 10 minutes and the gastric juice was collected as the supernatant. The concentration of pepsin in the gastric juice was determined by Anson's method (c.f., J. Gen. Physiol., 22, pp. 77-89 (1938)) using hemoglobin as the substrate, and the preventive effect of the test compound on the pepsin secretion was estimated in terms of \"decrease in pepsin concentration\" according to the following formula: [formula]"}, "gastric acid secretion": {"test_system": "gastric acid secretion", "assay": "Preventive effect on gastric acid secretion in pylorus-ligated rats", "type": "in vivo, Male SD-strain rats", "conditions": "100 mg/kg oral, 5 h after administration", "protocol": "as §1, §2\nOn the other hand, the concentration of free acid in the gastric juice was determined by titrating said gastric juice to pH 7.0 with 0.1N NaOH, and the preventive effect of the test compound on the gastric acid secretion was estimated in terms of \"the decrease in acidity of gastric juice\" according to the following formula: [formula] (Results)"}, "aspirin-induced ulcers": {"test_system": "aspirin-induced ulcers", "assay": "Effect on aspirin-induced ulcers", "type": "in vivo, Male Donryu-strain rats", "conditions": "aspirin 200 mg/kg", "protocol": "Male Donryu-strain rats (8 to 9 weeks old) were starved overnight, and a solution or suspension of a test compound in distilled water was administered orally into the stomachs in an amount of one ml per 100 g of body weight. Half an hour later, a suspension of aspirin in 0.25% CMC solution was administered orally to the rats in an amount of 0.5 ml per 100 g of body weight (Dose: 200 mg/kg). Four hours after the administration of aspirin, the rats were sacrificed and the stomachs were removed and inflated by injecting 10 ml of 1% formalin solution to fix the inner layers of the gastric walls. The stomach was then incised along the greater curvature and the lengths of the lesions were measured and summated to give ulcer index (in mm) for each animal. The preventive effect of the test compound on aspirin-induced ulcers were calculated by the following formula: [formula] (Results)"}}, "note": "Where a name gives a salt, the structure may show the parent alone.", "data": [{"molecule": "CC(C)c1cc2c(cc1S(=O)(=O)O)[C@@]1(C)CCC[C@@](C)(C(=O)O)[C@@H]1CC2", "note": "[2 (2-Dimethylaminoethyl)amine salt, sulfodehydroabietic acid di(2-dimethylaminoethylamine)salt monohydrate]", "values": [{"measurement": "Decrease (%) in pepsin concentration", "setting": "pepsin secretion; monohydrate", "value": 92, "unit": "%"}, {"measurement": "Decrease (%) in acidity of gastric juice", "setting": "gastric acid secretion; monohydrate", "value": 31, "unit": "%"}]}, {"molecule": "CC(C)c1cc2c(cc1S(=O)(=O)O)[C@@]1(C)CCC[C@@](C)(C(=O)O)[C@@H]1CC2", "note": "[2 (2-Methoxyethyl)amine salt, sulfodehydroabietic acid di(2-methoxyethylamine)salt]", "values": [{"measurement": "Decrease (%) in pepsin concentration", "setting": "pepsin secretion", "value": 98, "unit": "%"}]}, {"molecule": "CC(C)c1cc2c(cc1S(=O)(=O)O)[C@@]1(C)CCC[C@@](C)(C(=O)O)[C@@H]1CC2", "note": "[2 Cyclohexylamine salt, sulfodehydroabietic acid di(cyclohexylamine)salt]", "values": [{"measurement": "Decrease (%) in pepsin concentration", "setting": "pepsin secretion", "value": 71, "unit": "%"}]}, {"molecule": "CC(C)c1cc2c(cc1S(=O)(=O)O)[C@@]1(C)CCC[C@@](C)(C(=O)O)[C@@H]1CC2", "note": "[2 Isopropylamine salt, sulfodehydroabietic acid di(isopropylamine)salt]", "values": [{"measurement": "Decrease (%) in pepsin concentration", "setting": "pepsin secretion", "value": 95, "unit": "%"}, {"measurement": "Decrease (%) in acidity of gastric juice", "setting": "gastric acid secretion", "value": 40, "unit": "%"}]}, {"molecule": "CC(C)c1cc2c(cc1S(=O)(=O)O)[C@@]1(C)CCC[C@@](C)(C(=O)O)[C@@H]1CC2", "note": "[2 Morpholine salt, sulfodehydroabietic acid dimorpholine salt hemihydrate]", "values": [{"measurement": "Decrease (%) in pepsin concentration", "setting": "pepsin secretion; hemihydrate", "value": 92, "unit": "%"}]}, {"molecule": "CC(C)c1cc2c(cc1S(=O)(=O)O)[C@@]1(C)CCC[C@@](C)(C(=O)O)[C@@H]1CC2", "note": "[2/3 Aluminum salt, sulfodehydroabietic acid 2/3 aluminum ssalt 7/3 hydrate]", "values": [{"measurement": "Decrease (%) in pepsin concentration", "setting": "pepsin secretion; hydrate", "value": 95, "unit": "%"}]}, {"molecule": "CC(C)c1cc2c(cc1S(=O)(=O)O)[C@@]1(C)CCC[C@@](C)(C(=O)O)[C@@H]1CC2", "note": "[Carnosine salt, sulfodehydroabietic acic carnosine salt monohydrate]", "values": [{"measurement": "Decrease (%) in pepsin concentration", "setting": "pepsin secretion; monohydrate", "value": 72, "unit": "%"}, {"measurement": "Preventive effect on aspirin-induced ulcers", "setting": "aspirin-induced ulcers; p.o. 2 m mol./kg (1,248 mg/kg)", "value": 33, "unit": "%"}]}, {"molecule": "CC(C)c1cc2c(cc1S(=O)(=O)O)[C@@]1(C)CCC[C@@](C)(C(=O)O)[C@@H]1CC2", "note": "[Ethylenediamine salt, sulfodehydroabietic acid ethylenediamine salt hemihydrate]", "values": [{"measurement": "Decrease (%) in pepsin concentration", "setting": "pepsin secretion; hemihydrate", "value": 94, "unit": "%"}]}, {"molecule": "CC(C)c1cc2c(cc1S(=O)(=O)O)[C@@]1(C)CCC[C@@](C)(C(=O)O)[C@@H]1CC2", "note": "[Hexamethylenediamine salt, sulfodehydroabietic acid hexamethylenediamine salt hemihydrate]", "values": [{"measurement": "Decrease (%) in pepsin concentration", "setting": "pepsin secretion; hemihydrate", "value": 94, "unit": "%"}, {"measurement": "Decrease (%) in acidity of gastric juice", "setting": "gastric acid secretion; hemihydrate", "value": 32, "unit": "%"}]}, {"molecule": "CC(C)c1cc2c(cc1S(=O)(=O)O)[C@@]1(C)CCC[C@@](C)(C(=O)O)[C@@H]1CC2", "note": "[L-Arginine salt, sulfodehydroabietic acid L-arginine salt hemihydrate]", "values": [{"measurement": "Decrease (%) in pepsin concentration", "setting": "pepsin secretion; hemihydrate", "value": 77, "unit": "%"}]}, {"molecule": "CC(C)c1cc2c(cc1S(=O)(=O)O)[C@@]1(C)CCC[C@@](C)(C(=O)O)[C@@H]1CC2", "note": "[L-Asparagine salt, sulfodehydroabietic acid L-asparagine salt monohydrate]", "values": [{"measurement": "Decrease (%) in pepsin concentration", "setting": "pepsin secretion; monohydrate", "value": 90, "unit": "%"}, {"measurement": "Decrease (%) in acidity of gastric juice", "setting": "gastric acid secretion; monohydrate", "value": 38, "unit": "%"}]}, {"molecule": "CC(C)c1cc2c(cc1S(=O)(=O)O)[C@@]1(C)CCC[C@@](C)(C(=O)O)[C@@H]1CC2", "note": "[L-Glutamine salt, sulfodehydroabietic acid L-glutamine salt hemihydrate]", "values": [{"measurement": "Decrease (%) in pepsin concentration", "setting": "pepsin secretion; hemihydrate", "value": 90, "unit": "%"}, {"measurement": "Decrease (%) in acidity of gastric juice", "setting": "gastric acid secretion; hemihydrate", "value": 39, "unit": "%"}]}, {"molecule": "CC(C)c1cc2c(cc1S(=O)(=O)O)[C@@]1(C)CCC[C@@](C)(C(=O)O)[C@@H]1CC2", "note": "[L-Lysine salt, sulfodehydroabietic acid L-lysine salt monohydrate]", "values": [{"measurement": "Decrease (%) in pepsin concentration", "setting": "pepsin secretion; monohydrate", "value": 94, "unit": "%"}]}, {"molecule": "CC(C)c1cc2c(cc1S(=O)(=O)O)[C@@]1(C)CCC[C@@](C)(C(=O)O)[C@@H]1CC2", "note": "[L-S--Methylmethionine salt, sulfodehydroabietic acid S-methyl-L-methionine salt dihydrate]", "values": [{"measurement": "Decrease (%) in pepsin concentration", "setting": "pepsin secretion; dihydrate", "value": 84, "unit": "%"}, {"measurement": "Preventive effect on aspirin-induced ulcers", "setting": "aspirin-induced ulcers; p.o. 2 m mol./kg (1,086 mg/kg)", "value": 85, "unit": "%"}]}, {"molecule": "CC(C)c1cc2c(cc1S(=O)(=O)O)[C@@]1(C)CCC[C@@](C)(C(=O)O)[C@@H]1CC2", "note": "[Tetramethylenediamine salt, sulfodehydroabietic acid tetramethylenediamine salt hemihydrate]", "values": [{"measurement": "Decrease (%) in pepsin concentration", "setting": "pepsin secretion; hemihydrate", "value": 84, "unit": "%"}, {"measurement": "Decrease (%) in acidity of gastric juice", "setting": "gastric acid secretion; hemihydrate", "value": 36, "unit": "%"}]}, {"molecule": "sulfodehydroabietic acid (aluminum monohydroxide) [Aluminum monohydroxide salt]", "values": [{"measurement": "Decrease (%) in pepsin concentration", "setting": "pepsin secretion", "value": 91, "unit": "%"}]}, {"molecule": "sulfodehydroabietic acid di(aluminum dihydroxide)salt dihydrate [2 Aluminum dihydroxide salt]", "values": [{"measurement": "Decrease (%) in pepsin concentration", "setting": "pepsin secretion", "value": 69, "unit": "%"}]}]}
